HELM strings list units from the 5' end as sugar, base in round brackets, then linkage (d deoxyribose, r ribose, m 2'-O-methyl, p phosphodiester). Strings are as the collection lists them; they lack the last nucleoside at the 3' end of the tested compound. [moe] = 2'-O-(2-methoxyethyl) (MOE); [sp] = phosphorothioate linkage; [m5C] = 5-methylcytosine

This data set addresses UBE3A-ATS. Description: mouse, dose not given. The conditions noted are these: ASO.

For the substance “RNA1{[moe](A)[sp].[moe]([m5C])p.[moe](T)p.[moe](G)p.[moe](T)p.d(T)[sp].d(A)[sp].d([m5C])[sp].d([m5C])[sp].d(A)[sp].d(A)[sp].d(G)[sp].d(A)[sp].d([m5C])[sp].d(T)[sp].[moe](T)p.[moe]([m5C])p.[moe](A)[sp].[moe](G)}$$$$ (last 3' nucleoside missing)”, the 3 h FOB score is 3.8 score 0-7. Turning to “RNA1{[moe](A)[sp].[moe]([m5C])p.[moe](T)p.[moe](G)p.[moe]([m5C])p.[moe](T)p.d(T)[sp].d([m5C])[sp].d(A)[sp].d([m5C])[sp].d([m5C])[sp].d(A)[sp].d(T)[sp].d(T)[sp].d(T)[sp].d(T)[sp].[moe](G)p.[moe](A)[sp].[moe]([m5C])}$$$$ (last 3' nucleoside missing)”, the 3 h FOB score is 1 score 0-7. For “RNA1{[moe](A)[sp].[moe]([m5C])p.[moe](T)p.[moe](G)p.[moe]([m5C])p.d(T)[sp].d(T)[sp].d([m5C])[sp].d(A)[sp].d([m5C])[sp].d([m5C])[sp].d(A)[sp].d(T)[sp].d(T)[sp].d(T)[sp].[moe](T)p.[moe](G)p.[moe](A)[sp].[moe]([m5C])}$$$$ (last 3' nucleoside missing)” the value was 1.7 score 0-7; for “RNA1{[moe](A)[sp].[moe]([m5C])p.[moe](T)p.[moe](G)p.d([m5C])[sp].d(T)[sp].d(T)[sp].d([m5C])[sp].d(A)[sp].d([m5C])[sp].d([m5C])[sp].d(A)[sp].d(T)[sp].d(T)[sp].[moe](T)p.[moe](T)p.[moe](G)p.[moe](A)[sp].[moe]([m5C])}$$$$ (last 3' nucleoside missing)”, 1 score 0-7.

Substance “RNA1{[moe](A)[sp].[moe]([m5C])p.[moe](T)p.[moe](T)p.[moe](T)p.d(A)[sp].d(T)[sp].d(A)[sp].d(G)[sp].d(T)[sp].d(G)[sp].d(T)[sp].d(G)[sp].d(G)[sp].d(A)[sp].[moe](T)p.[moe](G)p.[moe](G)[sp].[moe](T)}$$$$ (last 3' nucleoside missing)” showed a 3 h FOB score of 6.8 score 0-7. For “RNA1{[moe](A)[sp].[moe]([m5C])p.[moe](T)p.[moe](T)p.[moe](T)p.d([m5C])[sp].d(A)[sp].d(T)[sp].d([m5C])[sp].d(A)[sp].d(G)[sp].d(T)[sp].d(T)[sp].d(A)[sp].d(G)[sp].[moe](T)p.[moe]([m5C])p.[moe](A)[sp].[moe](G)}$$$$ (last 3' nucleoside missing)”, the 3 h FOB score was 5.2 score 0-7.

Regarding “RNA1{[moe](A)[sp].[moe]([m5C])p.[moe](T)p.[moe](T)p.[moe]([m5C])p.d(A)[sp].d(T)[sp].d([m5C])[sp].d(A)[sp].d(A)[sp].d(T)[sp].d(A)[sp].d(T)[sp].d(T)[sp].d(T)[sp].[moe]([m5C])p.[moe]([m5C])p.[moe]([m5C])[sp].[moe]([m5C])}$$$$ (last 3' nucleoside missing)”, the 3 h FOB score was 0 score 0-7. Then “RNA1{[moe](A)[sp].[moe]([m5C])p.[moe](T)p.[moe](T)p.[moe]([m5C])p.d(T)[sp].d([m5C])[sp].d(A)[sp].d(T)[sp].d(T)[sp].d([m5C])[sp].d(T)[sp].d([m5C])[sp].d(T)[sp].d([m5C])[sp].[moe]([m5C])p.[moe](A)p.[moe]([m5C])[sp].[moe]([m5C])}$$$$ (last 3' nucleoside missing)”, with 0 score 0-7; and “RNA1{[moe](A)[sp].[moe]([m5C])p.[moe](T)p.[moe]([m5C])p.[moe](A)p.d(T)[sp].d([m5C])[sp].d(A)[sp].d(T)[sp].d(G)[sp].d(A)[sp].d(T)[sp].d([m5C])[sp].d(T)[sp].d(T)[sp].[moe](G)p.[moe](G)p.[moe](T)[sp].[moe](A)}$$$$ (last 3' nucleoside missing)”, with 3 score 0-7; and “RNA1{[moe](A)[sp].[moe]([m5C])p.[moe]([m5C])p.[moe](A)p.[moe](T)p.d(T)[sp].d(T)[sp].d(T)[sp].d(G)[sp].d(A)[sp].d([m5C])[sp].d([m5C])[sp].d(T)[sp].d(T)[sp].d([m5C])[sp].[moe](T)p.[moe](T)p.[moe](A)[sp].[moe](G)}$$$$ (last 3' nucleoside missing)”, with 0 score 0-7.

For “RNA1{[moe](A)[sp].[moe]([m5C])p.[moe]([m5C])p.[moe]([m5C])p.[moe]([m5C])p.d(T)[sp].d(A)[sp].d(G)[sp].d(G)[sp].d(A)[sp].d(A)[sp].d(T)[sp].d(A)[sp].d(A)[sp].d(T)[sp].[moe](G)p.[moe](T)p.[moe](T)[sp].[moe](G)}$$$$ (last 3' nucleoside missing)”, the 3 h FOB score was 2 score 0-7.

“RNA1{[moe](G)[sp].[moe](A)p.[moe](A)p.[moe](A)p.[moe]([m5C])p.d([m5C])[sp].d(A)[sp].d(G)[sp].d([m5C])[sp].d([m5C])[sp].d(A)[sp].d(G)[sp].d(G)[sp].d(T)[sp].d(G)[sp].[moe](T)p.[moe]([m5C])p.[moe](T)[sp].[moe](T)}$$$$ (last 3' nucleoside missing)” had a 3 h FOB score of 3 score 0-7. Consider “RNA1{[moe](G)[sp].[moe](A)p.[moe](A)p.[moe]([m5C])p.[moe](T)p.d(A)[sp].d(T)[sp].d([m5C])[sp].d([m5C])[sp].d(T)[sp].d(G)[sp].d([m5C])[sp].d(A)[sp].d(T)[sp].d([m5C])[sp].[moe]([m5C])p.[moe](G)p.[moe](A)[sp].[moe](G)}$$$$ (last 3' nucleoside missing)”, for which the 3 h FOB score was determined as 4.2 score 0-7. On to “RNA1{[moe](G)[sp].[moe](A)p.[moe](G)p.[moe](A)p.[moe](A)p.d([m5C])[sp].d([m5C])[sp].d([m5C])[sp].d(A)[sp].d([m5C])[sp].d(T)[sp].d(T)[sp].d(G)[sp].d(A)[sp].d(T)[sp].[moe]([m5C])p.[moe](T)p.[moe](A)[sp].[moe](T)}$$$$ (last 3' nucleoside missing)”, for which the 3 h FOB score was 3 score 0-7.

Consider “RNA1{[moe](G)[sp].[moe](A)p.[moe](G)p.[moe](A)p.[moe](T)p.d(A)[sp].d(G)[sp].d(A)[sp].d(A)[sp].d([m5C])[sp].d(A)[sp].d([m5C])[sp].d(T)[sp].d(T)[sp].d([m5C])[sp].[moe](G)p.[moe]([m5C])p.[moe]([m5C])[sp].[moe](G)}$$$$ (last 3' nucleoside missing)”, for which the 3 h FOB score was found to be 5 score 0-7. For the substance “RNA1{[moe](G)[sp].[moe](A)p.[moe](G)p.[moe](A)p.[moe]([m5C])p.d(A)[sp].d(T)[sp].d(G)[sp].d(T)[sp].d(G)[sp].d([m5C])[sp].d([m5C])[sp].d(A)[sp].d(G)[sp].d(T)[sp].[moe](T)p.[moe]([m5C])p.[moe](A)[sp].[moe](A)}$$$$ (last 3' nucleoside missing)”, the 3 h FOB score amounted to 6 score 0-7.

As for “RNA1{[moe](G)[sp].[moe](A)p.[moe](G)p.[moe](T)p.[moe](A)p.d(G)[sp].d(T)[sp].d([m5C])[sp].d(T)[sp].d(A)[sp].d(T)[sp].d(T)[sp].d(G)[sp].d(G)[sp].d(T)[sp].[moe](G)p.[moe](T)p.[moe](T)[sp].[moe]([m5C])}$$$$ (last 3' nucleoside missing)”, the 3 h FOB score worked out at 5.5 score 0-7. For “RNA1{[moe](G)[sp].[moe](A)p.[moe](G)p.[moe](T)p.[moe](A)p.d(T)[sp].d(A)[sp].d(T)[sp].d(T)[sp].d(A)[sp].d([m5C])[sp].d([m5C])[sp].d(T)[sp].d([m5C])[sp].d([m5C])[sp].[moe](A)p.[moe](G)p.[moe](G)[sp].[moe](T)}$$$$ (last 3' nucleoside missing)” the value was 1 score 0-7.

“RNA1{[moe](G)[sp].[moe](A)p.[moe](G)p.[moe]([m5C])[sp].d(T)[sp].d(A)[sp].d(T)[sp].d([m5C])[sp].d(T)[sp].d(G)[sp].d(T)[sp].d(A)[sp].[moe]([m5C])p.[moe](A)p.[moe](A)p.[moe](A)[sp].[moe](A)}$$$$ (last 3' nucleoside missing)” returned a 3 h FOB score of 3.3 score 0-7. For the substance “RNA1{[moe](G)[sp].[moe](A)p.[moe](G)p.[moe]([m5C])p.[moe](A)p.d(T)[sp].d(T)[sp].d(G)[sp].d(G)[sp].d([m5C])[sp].d(T)[sp].d(T)[sp].d([m5C])[sp].d(A)[sp].d(T)[sp].[moe](A)p.[moe](T)p.[moe](T)[sp].[moe](T)}$$$$ (last 3' nucleoside missing)”, the 3 h FOB score was determined as 1 score 0-7. With “RNA1{[moe](G)[sp].[moe](A)p.[moe](G)p.[moe]([m5C])p.[moe](T)[sp].d(A)[sp].d(T)[sp].d([m5C])[sp].d(T)[sp].d(G)[sp].d(T)[sp].d(A)[sp].d([m5C])[sp].[moe](A)p.[moe](A)p.[moe](A)[sp].[moe](A)}$$$$ (last 3' nucleoside missing)”, the 3 h FOB score stood at 6 score 0-7. For “RNA1{[moe](G)[sp].[moe](A)p.[moe](G)p.[moe]([m5C])p.[moe](T)p.[moe](A)[sp].d(T)[sp].d([m5C])[sp].d(T)[sp].d(G)[sp].d(T)[sp].d(A)[sp].d([m5C])[sp].d(A)[sp].[moe](A)p.[moe](A)[sp].[moe](A)}$$$$ (last 3' nucleoside missing)” the value was 4.7 score 0-7; for “RNA1{[moe](G)[sp].[moe](A)p.[moe](G)p.[moe]([m5C])p.[moe](T)p.[moe](A)p.d(T)[sp].d([m5C])[sp].d(T)[sp].d(G)[sp].d(T)[sp].d(A)[sp].d([m5C])[sp].d(A)[sp].d(A)[sp].d(A)[sp].[moe](A)p.[moe](T)[sp].[moe](G)}$$$$ (last 3' nucleoside missing)”, 5.2 score 0-7; for “RNA1{[moe](G)[sp].[moe](A)p.[moe](G)p.[moe]([m5C])p.[moe](T)p.d(A)[sp].d(T)[sp].d([m5C])[sp].d(T)[sp].d(G)[sp].d(T)[sp].d(A)[sp].d([m5C])[sp].d(A)[sp].d(A)[sp].[moe](A)p.[moe](A)p.[moe](T)[sp].[moe](G)}$$$$ (last 3' nucleoside missing)”, 6.7 score 0-7.

Regarding “RNA1{[moe](G)[sp].[moe](A)p.[moe](G)p.[moe]([m5C])p.d(T)[sp].d(A)[sp].d(T)[sp].d([m5C])[sp].d(T)[sp].d(G)[sp].d(T)[sp].d(A)[sp].d([m5C])[sp].d(A)[sp].[moe](A)p.[moe](A)p.[moe](A)p.[moe](T)[sp].[moe](G)}$$$$ (last 3' nucleoside missing)”, the 3 h FOB score came to 4.7 score 0-7.
